Source: patent publication US10342874B2, “Glucosamine peptide compounds for treating liver metabolic disorders” (Far Eastern Memorial Hospital, priority 2017, dated 2019)

Legend:
[1] = tested on: C57BL/6JNarl male mice fed with high fat diet; assay: Analysis of liver tissue fibrosis (Masson's Trichrome, collagen proportionate area); assay type: in vivo; conditions: HFD mice; for percentage of collagen proportionate area (CPA) in liver tissue: 2 mg/kg intraperitoneal, compared with Group 2 (HFD)
Description: (§1) 24 C57BL/6JNarl male mice at 5 weeks of age were purchased from the National Laboratory Animal Center and housed in the laboratory animal room of the Far Eastern Memorial Hospital at a constant temperature of 22° C., 55% humidity, automatic air regulation (ventilation rate of 12 times per hour), automatic light control (12:12 hour light/dark cycle), and provided with free access to water and chow diet D12450B (Research Diets, Inc.) for two weeks.
(§2) Then the 24 mice (7 weeks of age) were randomly divided into four groups, each containing six mice—Group 1 is the chow diet (CD) control group fed with chow diet D12450B; Group 2 is the high fat diet (HFD) group fed with high fat diet (i.e., modified D12492); Group 3 is the HFD+Compound A treatment group provided with high fat diet and Compound A; and Group 4 is the HFD+Compound B treatment group provided with high fat diet and Compound B. […]
Nuance multispectral image analysis module (PerknElmer, Inc) was used to quantify the collagen proportionate area (CPA), as shown in FIG. 6E. […]

HepG2 cells = assay: Oleic acid-induced in vitro fatty liver cell model, lipid droplets by Oil Red O staining quantified by Image J; assay type: cell-based, human; conditions: for lipid droplet accumulation: HepG2, 10 nM compound for 24 hours
Description: Human hepatocellular carcinoma cell line HepG2 was cultured in Dulbecco's modified Eagle's medium (DMEM, containing 4,500 mg/L D-glucose and L-glutamine) supplemented with 10% fetal bovine serum and 1% penicillin/streptomycin at 37° C. incubator with 5% CO2. To induce in vitro fatty liver cell model on HepG2 with oleic acid-bovine serum albumin complex (Sigma-Aldrich, USA), HepG2 cells were cultured in a 24-well plate at a cell volume of 8×10^4; after 18 to 24 hours when a 70% confluence of cell growth has reached, 0.1 mM of oleic acid was added for culturing for 24 hours. After the replacement of culture medium containing oleic acid, 0.5 μg/mL, 1 μg/mL, 2.5 μg/mL, 5 μg/mL and 10 μg/mL of Compound A were added to DMEM containing 2% fetal bovine serum for culturing for 8 hours; each experimental group performed four repetitions.
Oil Red O (ORO) staining was used to confirm the level of lipid droplets, e.g., amount of red particles, in HepG2. After 24 hours of oleic acid treatment, HepG2 cells were fixed with 4% paraformaldehyde for 15 minutes, followed by phosphate-buffered saline (PBS) washing for three times and then ORO staining for 1 hour. After staining, the cells were washed with PBS for three times, followed by hematoxylin staining for 5 minutes. The coverslip was reversely placed on the slide and sealed with glycerine for observation with optical microscope; images were taken and saved as electronic files.
Intracellular lipid droplets were quantified by Image J (National Institutes of Health, NIH) after adjustment to a proper threshold value. Images with at least 20 cells were analyzed and quantified by Image J with the “analyze particles” functions in threshold single sections with size (pixel^2) setting from 0.1 to 10.
(§3) Similar to Example 1, to induce in vitro fatty liver cell model on HepG2 with oleic acid, HepG2 cells were cultured in a 24-well plate at a cell volume of 8×10^4 and added with 0.1 mM of oleic acid for 24-hour culturing. After the replacement of culture medium containing oleic acid, 10 μg/mL of Compound A was added to DMEM for culturing for 4 hours, 8 hours, 16 hours, and 24 hours; each time point performed four repetitions. ORO staining was used to confirm the level of lipid droplets in HepG2, and their number and size were quantified by Image J.
Compound C, which is a derivative of Compound A, was also tested to further investigate the effect of glucosamine peptide compounds defined herein, including Compound A and its derivatives, on the formation of intracellular lipid droplets. Similar to Example 2, to induce in vitro fatty liver cell model on HepG2 with oleic acid, HepG2 cells were cultured in a 24-well plate at a cell volume of 8×10^4 and added with 0.1 mM of oleic acid for 24-hour culturing. After the replacement of culture medium containing oleic acid, 10 nM of Compound A and 10 nM of Compound C were individually added to different DMEMs for culturing for 24 hours, and four repetitions were performed for both Compound A and Compound C. ORO staining was used to confirm the level of lipid droplets in HepG2, and their number and size were quantified by Image J.

[2] = tested on: C57BL/6JNarl male mice fed with high fat diet; assay: Fatty liver animal test: liver appearance and liver weight; assay type: in vivo; conditions: HFD mice, 2 mg/kg intraperitoneal, three times a week for two weeks; compared with Group 2 (HFD)
Description: as §1
(§4) Then the 24 mice (7 weeks of age) were randomly divided into four groups, each containing six mice—Group 1 is the chow diet (CD) control group fed with chow diet D12450B; Group 2 is the high fat diet (HFD) group fed with high fat diet (i.e., modified D12492); Group 3 is the HFD+Compound A treatment group provided with high fat diet and Compound A; and Group 4 is the HFD+Compound B treatment group provided with high fat diet and Compound B.
(§5) Group 1 was fed with chow diet for 18 weeks, followed by 2 more weeks of chow diet, and then given an intraperitoneal injection of saline, without receiving Compound A or Compound B. Group 2, the HFD group, was fed with high fat diet for 18 weeks, followed by 2 more weeks of high fat diet, and then given an intraperitoneal injection of saline, without receiving Compound A or Compound B. Group 3, the HFD+Compound A treatment group, was fed with high fat diet for 18 weeks and then given an intraperitoneal injection of 2 mg/kg of Compound A per mouse, three times a week (once every one or two days) for two weeks, a total of six injections of Compound A. Group 4, the HFD+Compound B treatment group, was fed with high fat diet for 18 weeks and then given an intraperitoneal injection of 2 mg/kg of Compound B per mouse, three times a week (once every one or two days) for two weeks, a total of six injections of Compound B. After completion of feeding and treatment described above, the mice were weighed and euthanized with CO2, and their blood and liver tissue specimens were collected for analysis.

[3] = tested on: C57BL/6JNarl male mice fed with high fat diet; assay: Blood biochemistry of fatty liver mice; assay type: in vivo; conditions: HFD mice; for aspartate transaminase (AST) and alanine transaminase (ALT) compared with Group 2: 2 mg/kg, statement in words; for ALT / AST / GLU / T-CHO / TG: serum, 2 mg/kg intraperitoneal, six injections in two weeks, mean ± SD, six mice
Description: as §1, §4, §5
Blood samples from mice of each group in Example 4 were tested for measurement of serum aspartate transaminase (AST), alanine transaminase (ALT), total cholesterol (T-CHO), triglyceride (TG) and glucose (GLU). AST and ALT are common measures of liver function.

[4] = tested on: C57BL/6JNarl male mice fed with high fat diet; assay: Analysis of fat amount in liver tissue (H&E stain, Image J); assay type: in vivo; conditions: HFD mice; for percentage of area of lipid droplets relative to the total field of view in liver tissue: 2 mg/kg intraperitoneal, compared with Group 2 (HFD)
Description: as §1, §2
Image J was used to quantify the percentage of area of lipid droplets relative to the total field of view in mice liver tissues (FIG. 5E). […]

HuH-7 cells = assay: Oleic acid-induced in vitro fatty liver cell model, lipid droplets by Oil Red O staining quantified by Image J; assay type: cell-based, human
Description: as §3, with “Another human hepatocellular carcinoma cell line HuH-7 was used to test the temporal effect of Compound A to further confirm the effect of Compound A on intracellular lipid droplets. Similar” for “Similar”, “2,” for “1,”, “HuH-7” for “HepG2”, “HuH-7,” for “HepG2,”

Q: For `CC(=O)N[C@@H]1[C@@H](O[C@H](C)C(=O)N[C@@H](C)C(=O)N[C@H](CCC(=O)O)C(N)=O)[C@H](O)[C@@H](CO)O[C@H]1O` [Compound A], which “percentage of collagen proportionate area (CPA) in liver tissue” value [1] is on record?
A: much lower percentage of collagen proportionate area than Group 2

Q: And the lipid droplet accumulation (HepG2 cells)?
A: reduced significantly

Q: And the “treatment time after which significant reduction of lipid droplets is observed” value (HepG2 cells; HepG2, 10 μg/mL)?
A: 4 h

Q: What about the “treatment time at which maximum reduction of lipid droplets occurs” value (HepG2 cells; HepG2, 10 μg/mL) of the same molecule?
A: 8 h

Q: And the “number and size of lipid droplets” value (HepG2 cells; HepG2, 10 μg/mL compound for 4, 8, 16 and 24 hours)?
A: decrease with the increase of treatment time of Compound A in a time-dependent manner

Q: What about the “number and size of lipid droplets” value (HepG2 cells; HepG2, 0.1 mM oleic acid 24 h, then 0.5-10 μg/mL compound for 8 hours) of the same molecule?
A: decrease with the increase of Compound A concentration in a dose-dependent manner

Q: And the “liver appearance (size)” value [2]?
A: smaller livers than Group 2

Q: What about the “aspartate transaminase (AST) and alanine transaminase (ALT) compared with Group 2” value [3] of the same molecule?
A: significantly lower

Q: What about the ALT [3] of the same molecule?
A: 240.5 ± 83.1 U/L

Q: And the AST [3]?
A: 200.0 ± 68.4 U/L

Q: What about the GLU [3] of the same molecule?
A: 287.2 ± 60.0 mg/dL

Q: And the T-CHO [3]?
A: 225.3 ± 53.2 mg/dL

Q: What about the TG [3] of the same molecule?
A: 30.1 ± 9.8 mg/dL

Q: And the “percentage of area of lipid droplets relative to the total field of view in liver tissue” value [4]?
A: much lower percentage of area of lipid droplets relative to the total field of view than Group 2

Q: And the “treatment time after which significant reduction of lipid droplets is observed” value (HuH-7 cells; HuH-7, 10 μg/mL)?
A: 4 h

Q: And the “treatment time at which maximum reduction of lipid droplets occurs” value (HuH-7 cells; HuH-7, 10 μg/mL)?
A: 16 h

Q: What about the “number and size of lipid droplets” value (HuH-7 cells; HuH-7, 10 μg/mL compound for 4, 8, 16 and 24 hours) of the same molecule?
A: decrease with the increase of treatment time of Compound A in a time-dependent manner

Q: For `CCCCCCCCCCCCCCCC(=O)OCC(COP(=O)(O)OCCNC(=O)[C@H](C)NC(=O)CC[C@@H](NC(=O)[C@H](C)NC(=O)C(C)O[C@H]1[C@H](O)[C@@H](CO)OC(O)[C@@H]1NC(C)=O)C(N)=O)OC(=O)CCCCCCCCCCCCCCC` (stereo partly shown) [Compound B], which “percentage of collagen proportionate area (CPA) in liver tissue” value [1] is on record?
A: much lower percentage of collagen proportionate area than Group 2

Q: And the “alleviating liver fibrosis complicated with fatty liver, comparison of the compounds” value ([1]; Group 4 compared with Group 3)?
A: more effective than Compound A

Q: What about the average liver weight [2] of the same molecule?
A: less than Group 2

Q: And the “liver appearance (size)” value [2]?
A: smaller livers than Group 2

Q: What about the “ratio of liver weight to body weight (average liver weight percentage)” value [2] of the same molecule?
A: smaller average liver weight percentage than Group 2

Q: What about the “aspartate transaminase (AST) and alanine transaminase (ALT) compared with Group 2” value [3] of the same molecule?
A: significantly lower

Q: And the ALT [3]?
A: 185.4 ± 83.1 U/L

Q: And the AST [3]?
A: 191.3 ± 74.0 U/L

Q: And the GLU [3]?
A: 274.4 ± 31.0 mg/dL

Q: And the T-CHO [3]?
A: 234.0 ± 33.6 mg/dL

Q: What about the TG [3] of the same molecule?
A: 42.2 ± 18.9 mg/dL

Q: What about the “percentage of area of lipid droplets relative to the total field of view in liver tissue” value [4] of the same molecule?
A: much lower percentage of area of lipid droplets relative to the total field of view than Group 2

Q: What about the “alleviating accumulation of hepatic fat induced by high fat diet, comparison of the compounds” value ([4]; Group 4 compared with Group 3) of the same molecule?
A: more effective than Compound A

Q: `CCCCOC(=O)[C@@H](CCC(N)=O)NC(=O)[C@H](C)NC(=O)[C@@H](C)OC1C(NC(C)=O)[C@@H](O)OC(CO)[C@H]1O` (stereo partly shown) [Compound C] was tested. Which lipid droplet accumulation (HepG2 cells) did it give?
A: reduced significantly
